Assay results as given in patent US11739098B2 (BRISTOL-MYERS SQUIBB COMPANY, priority 2017, dated 2023).
pIC50: −log10 of the molar value.

Key:
Type in all cases: cell-based
[1] = biological target: T1, human TLR7 (Homo sapiens, UniProt Q9NYK1); assay: TLR7 inhibition reporter assay (HEK-Blue cells, SEAP reporter, gardiquimod stimulation); settings: HEK-Blue cells overexpressing human TLR7, SEAP reporter, gardiquimod 7.5 μM
T1 construct: host or cells: HEK-Blue cells (HEK293-derived reporter line)
T1 sequence (Q9NYK1 27-1049): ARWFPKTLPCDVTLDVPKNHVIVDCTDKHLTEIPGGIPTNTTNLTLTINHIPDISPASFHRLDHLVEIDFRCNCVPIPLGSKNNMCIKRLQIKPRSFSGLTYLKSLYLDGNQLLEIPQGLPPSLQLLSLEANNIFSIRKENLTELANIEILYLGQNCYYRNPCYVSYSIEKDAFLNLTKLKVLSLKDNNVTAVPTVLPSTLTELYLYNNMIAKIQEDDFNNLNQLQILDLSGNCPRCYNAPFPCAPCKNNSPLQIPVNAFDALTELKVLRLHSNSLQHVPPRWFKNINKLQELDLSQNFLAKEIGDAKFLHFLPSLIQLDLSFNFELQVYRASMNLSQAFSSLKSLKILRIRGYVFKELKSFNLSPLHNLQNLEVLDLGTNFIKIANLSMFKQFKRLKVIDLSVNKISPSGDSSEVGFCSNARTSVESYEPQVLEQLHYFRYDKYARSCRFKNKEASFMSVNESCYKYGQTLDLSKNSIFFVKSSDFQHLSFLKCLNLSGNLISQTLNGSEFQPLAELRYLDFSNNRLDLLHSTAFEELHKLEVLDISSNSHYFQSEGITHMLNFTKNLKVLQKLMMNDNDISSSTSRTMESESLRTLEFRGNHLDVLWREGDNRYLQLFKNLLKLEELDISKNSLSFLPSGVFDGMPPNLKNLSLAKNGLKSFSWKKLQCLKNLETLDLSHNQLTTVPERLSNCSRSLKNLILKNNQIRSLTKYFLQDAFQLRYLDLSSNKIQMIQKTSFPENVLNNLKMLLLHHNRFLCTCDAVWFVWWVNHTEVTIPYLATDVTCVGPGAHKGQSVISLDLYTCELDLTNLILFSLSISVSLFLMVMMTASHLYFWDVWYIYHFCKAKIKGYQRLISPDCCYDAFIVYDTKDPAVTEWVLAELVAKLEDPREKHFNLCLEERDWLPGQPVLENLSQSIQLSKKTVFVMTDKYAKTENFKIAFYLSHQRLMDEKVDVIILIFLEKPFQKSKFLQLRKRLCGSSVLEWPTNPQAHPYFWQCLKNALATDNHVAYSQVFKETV
Procedure, shortened: (§1)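 Cells seeded per well (15000 TLR7, 20,000 TLR8, 25,000 TLR9); compound added over 0.05 nM–50 μM for 30 min at room temperature; agonist added (TLR7 gardiquimod 7.5 μM, TLR8 R848 15.9 μM, TLR9 ODN2006 5 nM); 22 h at 37 °C; SEAP measured; percent inhibition calculated.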

[2] = biological target: T2, human TLR8 (Homo sapiens, UniProt Q9NR97); assay: TLR8 inhibition reporter assay (HEK-Blue cells, SEAP reporter, R848 stimulation); settings: HEK-Blue cells overexpressing human TLR8, SEAP reporter, R848 15.9 μM
T2 construct: host or cells: HEK-Blue cells (HEK293-derived reporter line)
T2 sequence (Q9NR97 27-1041): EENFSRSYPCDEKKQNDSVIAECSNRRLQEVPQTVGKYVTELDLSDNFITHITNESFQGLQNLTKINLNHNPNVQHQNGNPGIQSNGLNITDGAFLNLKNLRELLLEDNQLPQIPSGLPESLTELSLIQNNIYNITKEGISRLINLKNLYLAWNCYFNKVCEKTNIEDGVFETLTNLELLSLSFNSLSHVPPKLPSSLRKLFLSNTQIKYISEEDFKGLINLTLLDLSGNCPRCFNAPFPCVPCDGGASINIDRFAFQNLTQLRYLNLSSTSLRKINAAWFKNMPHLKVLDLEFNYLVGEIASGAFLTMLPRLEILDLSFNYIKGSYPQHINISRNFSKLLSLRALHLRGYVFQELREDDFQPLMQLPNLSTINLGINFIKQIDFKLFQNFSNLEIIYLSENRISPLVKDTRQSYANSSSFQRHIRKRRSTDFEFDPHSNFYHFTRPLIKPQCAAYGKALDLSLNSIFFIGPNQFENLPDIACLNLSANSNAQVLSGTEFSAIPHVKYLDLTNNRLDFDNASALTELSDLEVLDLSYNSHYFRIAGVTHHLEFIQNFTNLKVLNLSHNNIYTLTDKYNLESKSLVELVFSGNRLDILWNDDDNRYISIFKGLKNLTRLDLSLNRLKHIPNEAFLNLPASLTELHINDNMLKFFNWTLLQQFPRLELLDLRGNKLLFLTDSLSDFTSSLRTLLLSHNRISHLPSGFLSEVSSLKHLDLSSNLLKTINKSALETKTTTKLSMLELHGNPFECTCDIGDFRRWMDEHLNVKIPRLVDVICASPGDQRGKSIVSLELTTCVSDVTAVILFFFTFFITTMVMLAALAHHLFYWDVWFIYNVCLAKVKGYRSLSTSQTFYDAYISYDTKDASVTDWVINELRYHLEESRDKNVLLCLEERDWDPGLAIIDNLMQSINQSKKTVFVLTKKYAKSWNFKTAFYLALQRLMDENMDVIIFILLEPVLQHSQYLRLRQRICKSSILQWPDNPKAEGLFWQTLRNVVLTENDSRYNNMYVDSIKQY
Procedure, shortened: as §1

[3] = biological target: T3, human TLR9 (Homo sapiens, UniProt Q9NR96); assay: TLR9 inhibition reporter assay (HEK-Blue cells, SEAP reporter, ODN2006 stimulation); settings: HEK-Blue cells overexpressing human TLR9, SEAP reporter, ODN2006 5 nM
T3 construct: host or cells: HEK-Blue cells (HEK293-derived reporter line)
T3 sequence (Q9NR96 26-1032): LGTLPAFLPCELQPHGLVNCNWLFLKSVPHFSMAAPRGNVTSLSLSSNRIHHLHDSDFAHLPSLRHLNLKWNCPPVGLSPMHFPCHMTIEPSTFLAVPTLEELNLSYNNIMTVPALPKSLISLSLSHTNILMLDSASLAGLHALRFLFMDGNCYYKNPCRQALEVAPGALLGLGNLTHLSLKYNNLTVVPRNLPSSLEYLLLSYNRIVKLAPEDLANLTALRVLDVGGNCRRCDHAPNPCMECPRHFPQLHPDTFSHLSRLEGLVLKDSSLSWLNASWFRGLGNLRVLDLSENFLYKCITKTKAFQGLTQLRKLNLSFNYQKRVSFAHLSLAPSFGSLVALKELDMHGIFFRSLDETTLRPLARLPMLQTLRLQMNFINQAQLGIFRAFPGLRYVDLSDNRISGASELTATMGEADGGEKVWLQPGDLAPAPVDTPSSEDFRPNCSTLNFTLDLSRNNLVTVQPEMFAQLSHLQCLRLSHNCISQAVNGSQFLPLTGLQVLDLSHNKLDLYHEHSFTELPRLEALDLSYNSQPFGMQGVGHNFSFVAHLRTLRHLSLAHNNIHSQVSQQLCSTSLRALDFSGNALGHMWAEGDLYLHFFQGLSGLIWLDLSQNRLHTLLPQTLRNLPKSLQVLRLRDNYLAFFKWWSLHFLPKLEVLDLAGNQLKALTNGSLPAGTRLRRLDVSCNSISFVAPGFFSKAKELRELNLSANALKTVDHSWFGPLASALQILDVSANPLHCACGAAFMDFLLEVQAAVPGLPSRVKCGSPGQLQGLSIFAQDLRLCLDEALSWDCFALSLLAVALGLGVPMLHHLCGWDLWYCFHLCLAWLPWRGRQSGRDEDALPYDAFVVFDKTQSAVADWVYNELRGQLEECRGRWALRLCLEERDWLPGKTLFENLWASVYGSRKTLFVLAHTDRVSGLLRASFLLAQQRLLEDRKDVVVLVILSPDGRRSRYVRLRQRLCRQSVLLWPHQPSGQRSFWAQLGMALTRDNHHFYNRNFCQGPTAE
Procedure, shortened: as §1

pIC50 [1] | pIC50 [2] | pIC50 [3] | SMILES
4.30 to 6.00 | 4.30 to 6.00 | 6.00 to 7.00 | Cc1nc2c(-c3[nH]c4ccc(C5CCNCC5)cc4c3C)ccnc2[nH]1 [Example 232, 2-methyl-7-(3-methyl-5-(piperidin-4-yl)-1H-indol-2-yl)-3H-imidazo[4,5-b]pyridine]
> 7.00 | > 7.00 | 6.00 to 7.00 | CC(C)c1c(-c2ccc3nccn3c2)[nH]c2ccc(C3CCN(C)CC3)cc12 [Example 947, 6-(3-isopropyl-5-(1-methylpiperidin-4-yl)-1H-indol-2-yl)imidazo[1,2-a]pyridine]
6.00 to 7.00 | 6.00 to 7.00 | 6.00 to 7.00 | CC(C)c1c(-c2ccc3c(N)noc3c2)[nH]c2ccc(C3CCNCC3)cc12 [Example 86, 6-(3-isopropyl-5-(piperidin-4-yl)-1H-indol-2-yl)benzo[d]isoxazol-3-amine]
> 7.00 | > 7.00 | 4.30 to 6.00 | Cc1nc2c(-c3[nH]c4ccc(C5CCNCC5)cc4c3C(C)C)cccn2n1 [Example 153, 8-(3-isopropyl-5-(piperidin-4-yl)-1H-indol-2-yl)-2-methyl-[1,2,4]triazolo[1,5-a]pyridine]
> 7.00 | > 7.00 | 4.30 to 6.00 | Cc1c(-c2[nH]c3ccc(C4CCNCC4)cc3c2C(C)C)cn2nnnc2c1C [Example 73, 6-(3-isopropyl-5-(piperidin-4-yl)-1H-indol-2-yl)-7,8-dimethyltetrazolo[1,5-a]pyridine]
< 5.51 | < 5.51 | 4.30 to 6.00 | CC(C)c1c(-c2coc3cccnc23)[nH]c2ccc(C3CCNCC3)cc12 [Example 20, 3-(3-isopropyl-5-(piperidin-4-yl)-1H-indol-2-yl)furo[3,2-b] pyridine]

More lines, now with the values behind:

SMILES | pIC50 [1] | pIC50 [2] | pIC50 [3]
CC(C)c1c(-c2ccnc3[nH]ncc23)[nH]c2ccc(C3CCN(C4CCNCC4F)CC3)cc12 (stereo not drawn) [Example 827, 4-(5-(3′-fluoro-[1,4′-bipiperidin]-4-yl)-3-isopropyl-1H-indol-2-yl)-1H-pyrazolo[3,4-b]pyridine] | > 7.00 | > 7.00 | 6.00 to 7.00
CNCCN1CCC(c2ccc3[nH]c(-c4ccnc5[nH]ncc45)c(C(C)C)c3c2)C(F)C1 (stereo not drawn) [Example 678, 2-(3-fluoro-4-(3-isopropyl-2-(1H-pyrazolo[3,4-b]pyridin-4-yl)-1H-indol-5-yl)piperidin-1-yl)-N-methylethan-1-amine] | 6.00 to 7.00 | > 7.00 | 4.30 to 6.00
Cc1c(-c2ccnc3[nH]cc(-c4ccccc4)c23)[nH]c2ccc(C3CCNCC3)cc12 [Example 223, 4-(3-methyl-5-(piperidin-4-yl)-1H-indol-2-yl)-3-phenyl-1H-pyrrolo[2,3-b]pyridine] | 4.30 to 6.00 | 4.30 to 6.00 | 6.00 to 7.00
Cc1cc(-c2[nH]c3ccc(C4CCN(CC(C)(C)O)CC4)cc3c2C(C)C)cc2ncnn12 [Example 756, 1-(4-(3-isopropyl-2-(5-methyl-[1,2,4]triazolo[1,5-a]pyridin-7-yl)-1H-indol-5-yl)piperidin-1-yl)-2-methylpropan-2-ol] | > 7.00 | > 7.00 | 4.30 to 6.00
Cc1ccc(-c2[nH]c3ccc(C4CCN(C(=O)CN(C)C)CC4)cc3c2C(C)C)c2ncnn12 [Example 516, 2-(dimethylamino)-1-(4-(3-isopropyl-2-(5-methyl-[1,2,4]triazolo[1,5-a]pyridin-8-yl)-1H-indol-5-yl)piperidin-1-yl)ethan-1-one] | > 7.00 | > 7.00 | 4.30 to 6.00
CC(C)NC(=O)CN1CCC(c2ccc3[nH]c(-c4ccc5nccn5c4)c(C(C)C)c3c2)CC1 [Example 402, 2-(4-(2-(imidazo[1,2-a]pyridin-6-yl)-3-isopropyl-1H-indol-5-yl)piperidin-1-yl)-N-isopropylacetamide] | > 7.00 | 6.00 to 7.00 | 4.30 to 6.00
Cc1cc(-c2[nH]c3ccc(C4CCN(CC(=O)N(C)C)CC4)cc3c2C(C)C)cn2nnnc12 [Example 313, 2-(4-(3-isopropyl-2-(8-methyltetrazolo[1,5-a]pyridin-6-yl)-1H-indol-5-yl)piperidin-1-yl)-N,N-dimethylacetamide] | > 7.00 | > 7.00 | 4.30 to 6.00
Cc1cc(-c2[nH]c3ccc(C4CCN(C5COC5)CC4)cc3c2C(C)C)c(C)n2nnnc12 [Example 740, 6-(3-isopropyl-5-(1-(oxetan-3-yl)piperidin-4-yl)-1H-indol-2-yl)-5,8-dimethyltetrazolo[1,5-a]pyridine] | 6.00 to 7.00 | > 7.00 | 4.30 to 6.00
CC(C)c1c(-c2ccnc3[nH]ncc23)[nH]c2ccc(C3CCN(C(=O)CN4CCC(CO)CC4)CC3)cc12 [Example 576, 2-(4-(hydroxymethyl)piperidin-1-yl)-1-(4-(3-isopropyl-2-(1H-pyrazolo[3,4-b]pyridin-4-yl)-1H-indol-5-yl)piperidin-1-yl)ethan-1-one] | > 7.00 | > 7.00 | 4.30 to 6.00
